Columns and labels:
[1] = system: Gallbladder strips; assay: CCK-antagonism in isolated gallbladder (contraction of strips induced by CCK-8); format: cell-based, Hartley guinea-pig; conditions: Cavia porcellus; antagonism of gallbladder contraction induced by 10⁻⁸ M CCK-8, guinea-pig strips, Krebs solution, 37°C; read-out: IC₅₀
Method: Gallbladder strips isolated from male Hartley guinea-pig were prepared and suspended in Magnus bath filled with Krebs solution (1 g of initial tension). The solution kept at 37°C was aerated with a mixture of 95% O₂ and 5% CO₂. The isometric contraction of strips was recorded through a force-displacement transducer. Antagonism by test drugs against gallbladder contraction induced by 10⁻⁸ M CCK-8 was examined and IC₅₀ value was calculated.

[2] = system: amylase secretion; assay: Effect on amylase secretion in rats (stimulated by CCK-8); format: in vivo; conditions: Rattus norvegicus, sc; intraduodenal administration 30 minutes before CCK-8 (10 µg/kg, subcutaneous); anesthetized male Wistar rats; amylase in biliopancreatic juice; read-out: ED₅₀
Method: Male Wistar rats were anesthetized with urethane (1.5 g/kg, S.C.), and tracheal cannula was inserted. Biliopancreatic juice was collected from the cannula which had been inserted into the common bile duct. Thirty minutes after intraduodenal administration of test drug, anylase secretion was stimulated by subcutaneous injection of CCK-8 (10 µg/kg). Amylase concentration in the sample collected every 30 minutes during experiment was assayed using Amylase B Test (Wako), and ED₅₀ value was calculated.

Row | Compound | IC50 [1] | ED50 [2]
1 | CCCCCN(CCCCC)C(=O)C(CC(=O)O)CS(=O)(=O)c1ccc(Cl)c(Cl)c1 (racemic) [Compound 29] | 37 µM | 9.9 mg/kg
2 | CCCCCCN(CCCCCC)C(=O)C(CCC(=O)O)CS(=O)(=O)c1ccc(Cl)c(Cl)c1 (racemic) [Compound 33] | – | 7.1 mg/kg
